Data taken from ChEMBL document CHEMBL2163302, “Allyl m-trifluoromethyldiazirine mephobarbital: an unusually potent enantioselective and photoreactive barbiturate general anesthetic” (J Med Chem, 2012).
Values after ≈ are worked out from the molar mass of the structure shown.

Assays:
[1] = tested on: Xenopus laevis; test: Anesthetic activity in Xenopus laevis tadpoles assessed as loss of righting reflexes; assay type: functional, organism-based; conditions: Tadpole
[2] = molecular target: T1, Gamma-aminobutyric acid receptor subunit alpha-1 (Homo sapiens) (UniProt P14867); conditions: HEK293S, 200 uM
T1 sequence (whole entry): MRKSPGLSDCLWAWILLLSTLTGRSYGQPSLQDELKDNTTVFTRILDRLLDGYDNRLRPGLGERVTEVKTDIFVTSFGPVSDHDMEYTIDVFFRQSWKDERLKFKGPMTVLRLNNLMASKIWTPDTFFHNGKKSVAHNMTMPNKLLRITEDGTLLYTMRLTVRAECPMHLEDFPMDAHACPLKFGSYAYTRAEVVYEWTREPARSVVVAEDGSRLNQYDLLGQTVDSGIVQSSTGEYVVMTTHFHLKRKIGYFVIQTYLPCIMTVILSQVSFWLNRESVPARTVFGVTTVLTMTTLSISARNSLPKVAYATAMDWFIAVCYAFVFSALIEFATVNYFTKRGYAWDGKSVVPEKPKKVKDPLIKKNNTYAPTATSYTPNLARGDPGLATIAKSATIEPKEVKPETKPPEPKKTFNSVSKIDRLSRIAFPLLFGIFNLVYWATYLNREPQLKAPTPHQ

[3] = molecular target: T2, Gamma-aminobutyric acid receptor subunit beta-3 (Homo sapiens) (UniProt P28472); conditions: HEK293S, 200 uM
T2 sequence (whole entry): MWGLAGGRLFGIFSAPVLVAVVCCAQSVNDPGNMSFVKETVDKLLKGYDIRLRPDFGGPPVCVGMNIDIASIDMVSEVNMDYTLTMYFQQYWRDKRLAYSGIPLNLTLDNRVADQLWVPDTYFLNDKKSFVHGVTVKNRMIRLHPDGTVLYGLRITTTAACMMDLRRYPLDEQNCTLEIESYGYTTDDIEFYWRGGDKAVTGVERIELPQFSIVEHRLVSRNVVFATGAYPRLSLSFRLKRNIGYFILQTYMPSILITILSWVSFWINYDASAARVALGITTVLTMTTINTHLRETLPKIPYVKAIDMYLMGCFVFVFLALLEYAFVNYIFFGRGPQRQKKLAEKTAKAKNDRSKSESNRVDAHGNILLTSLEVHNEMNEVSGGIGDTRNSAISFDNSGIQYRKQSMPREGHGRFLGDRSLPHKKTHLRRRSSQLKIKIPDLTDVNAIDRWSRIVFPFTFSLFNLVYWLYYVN

[4] = molecular target: GABA-A receptor; alpha-1/beta-2/gamma-2 (Homo sapiens) (UniProt P14867+P47870+P18507); conditions: Oocyte, 80 uM
[5] = Stability in 0.01 M Tris/HCl buffer at pH 7.4 at 4 degC days by HPLC; assay type: physicochemical
[6] = Aqueous solubility in 0.01 M Tris/HCl buffer at pH 7.4 by HPLC; assay type: physicochemical
[7] = molecular target: T3, Gamma-aminobutyric acid receptor subunit beta-3 (Homo sapiens, UniProt P28472); test: biochemical
T3 sequence (P28472 whole entry): T2 sequence (whole entry)

## C=CC[C@@]1(c2cccc(C3(C(F)(F)F)N=N3)c2)C(=O)NC(=O)N(C)C1=O
[1]
  EC50: 3.7 µM
[2]
  inhibition: > 90%
[3]
  inhibition: > 90%

## C=CC[C@]1(c2cccc(C3(C(F)(F)F)N=N3)c2)C(=O)NC(=O)N(C)C1=O
[1]
  EC50: 38 µM
[4]
  inhibition: 40%

## C=CCC1(c2cccc(C3(C(F)(F)F)N=N3)c2)C(=O)NC(=O)N(C)C1=O (racemic)
[5]
  Stability: 2.5 days
[6]; buffer
  solubility: 80 µM (≈ 29.3 µg/mL)

## CCC1(c2ccccc2)C(=O)NC(=O)N(C)C1=O (stereo not given) [MEPHOBARBITAL]
[6]; 0.01 M Tris/HCl buffer, read-out: solubility
  solubility: 600 µM (≈ 148 µg/mL)

## CCCC(C)C1(CC)C(=O)NC(=O)NC1=O (stereo not given) [PENTOBARBITAL]
[1]
  EC50: 65 µM
[7]
  IC50: 88 µM
